# What was measured:
# [1] = Pharmacokinetics and tissue distribution after single-dose iv injection in mice; format: in vivo; conditions: iv ~10 mg/kg; for Tissue distribution profile, levels in organs: 24 h after injection; for Crossing of the blood-brain barrier: brain tissue (FIG. 4), 10 mg/kg
# Experimental: FIG. 4: Tissue distribution of ferrostatin-analogues. Equimolar amounts of Ferrostatin (Fer-1), compound 39 (depicted as UAMC-3203) and compound 38 (depicted as UAMC-3206) (˜10 mg/kg) were injected intravenously 2 h (left panel) or 24 h (right panel) before tissue collection (heart, liver, lung, muscle, kidney and brain). Tissues were collected, snap frozen in liquid nitrogen, homogenized and stored at −80° C. until analysis. The tissue samples for LC-MS were further processed by protein precipitation by diluting 20 μL of the homogenate with 80 μL ACN containing IS (tolbutamide). After centrifugation, the supernatant was further diluted in the appropriate solvent.
# The detected levels of UAMC-3203 vary between 3-60 ng/mg tissue depending on the organ, which is up to […] or 6-fold higher than the dose injected.
# [2] = system: acute iron poisoning induced organ damage; test: Acute iron poisoning (FeSO4) induced organ damage, plasma LDH and creatine kinase; format: in vivo; conditions: for Protection against organ damage: plasma lactate dehydrogenase (LDH) and creatine kinase levels, prophylactic setting: ~10 mg/kg iv 15 min before FeSO4 300 mg/kg ip, plasma 2 h after challenge (FIG. 5A); for Protection against organ damage: plasma lactate dehydrogenase (LDH) and creatine kinase levels, therapeutic setting: ~10 mg/kg iv 30 min after FeSO4 300 mg/kg ip, plasma 8 h after challenge (FIG. 5B)
# Experimental: Equimolar amounts of ferroptosis inhibitors (˜10 mg/kg) were injected iv 15 min before ip injection of FeSO4 (300 mg/kg). Plasma was collected 2 h after FeSO4-challenge and analyzed for the presence of lactate dehydrogenase (LDH) and creatine kinase. Fer-1 is ferrostatin, 3234 is compound 37,3206 is compound 38 and 3203 is compound 39 (see Table 1 for numbering and structure). […] Equimolar amounts of ferroptosis inhibitors (˜10 mg/kg) were injected iv 30 min after ip injection of FeSO4 (300 mg/kg). Plasma was collected 8 h after FeSO4-challenge and analyzed for the presence of lactate dehydrogenase (LDH) and creatine kinase.
# We identified acute iron poisoning as a novel experimental model for in rhabdomyolysis-induced kidney failure.
# [3] = Plasma stability, human plasma; format: in vitro ADME; conditions: 37° C., remaining parent compound, read-out: Plasma stability (% recovery after 6 h), Human
# Experimental: (§1) 5 μl of a 10 mM stock solution of the compound in DMSO was added to 995 μl of plasma to obtain a 50 μM final solution. The mixture was gently shaken for 6 h at 37° C. Aliquots of 100 μl were taken at various time points (0, 0.5 h, 1 h, 2 h, 3 h and 6 h) and diluted with 400 μl of cold methanol (stored at 4° C.). The suspension was centrifuged at 14000 rpm for 5 min. 50 μl of the supernatant was diluted with 950 μl of methanol and analysed with LC/MS/MS. The samples were analysed in triplicate. The experiment was done in duplicate. […] Enalapril maleate was used as a control in mice, rats, and in human.
# [4] = Microsomal (metabolic) stability, rat liver microsomes; conditions: for CLint scaled at 10 µM / half-life at 10 µM: rat
# Text: (§2) By using the measured microsomal in vitro t1/2, a calculated value for the intrinsic clearance Clint can be determined. This value states the measure in which a drug that is not bound to plasma proteins is irreversibly removed from the body by the liver. This value is expressed in mL/min/kg which can be interpreted as the volume of blood in mL that is cleared of a drug per minute per kilogram of body weight. The CLint is less sensitive to used variables in ADME assays since the amount of microsomal protein and the volume of the incubation are all taken into account. (Sohlenius-Sternbeck et al., Xenobiotica, 2012, 42, 841-853)
# (§3) Liver microsomes (20 mg protein/ml), NADPH regenerating system solutions A & B and 5 mM stock compound solution (100% DMSO) are prepared. The reaction mixture finally contains 713 μL purified water, 200 μL 0.5 M potassium phosphate pH 7.4, 50 μL NADPH regenerating system solution A (BD Biosciences Cat. No. 451220), 10 μL NADPH regenerating system solution B (BD Biosciences Cat. No. 451200) and 2 μL of the compound stock solution (10 μM final concentration). The reaction mixture is warmed to 37° C. for 5 minutes in a water bath and the reaction is initiated by addition of 25 μL of liver microsomes (0.5 mg protein/ml final concentration). At different time points (0 min-15 min-30 min-60 min-120 min-240 min-360 min-24 h), 20 μL is withdrawn and 80 μL cold acetonitrile is added on ice for 10 minutes. Then the mixtures are centrifuged at 13 000 rpm for 5 min at 4° C. The supernatant is further diluted in 90% water/MeCN (1/25) to fall within the range of the LC/MS/MS analysis. At each time point, the compound is analysed using LC/MS/MS with the same UPLC system as described above. A standard curve of six points was made to fit the measured concentrations. Verapamil was used as a positive control.
# (§4) All obtained readouts were processed using Microsoft Excel. In order to determine the microsomal half-life t1/2 of the compounds, the rate constant k was determined by plotting the exponential decay graphs using GraFit. Microsomal t1/2 was determined using the following formula: […]
# [5] = Kinetic solubility (turbidimetric method); format: physicochemical; conditions: 10 mM PBS pH 7.4, 2% DMSO, test range 3.125-200 μM, 2 h at 37° C.
# Experimental: A turbidimetric method was used. First a series of DMSO compound stock solutions was prepared ([…]). An aliquot of 4 μL stock solution was added to 196 μL PBS buffer (pH 7.4). A series of concentrations were prepared (3.13-200 μM), including a blank on a microtiter plate. (2% DMSO-D6) The microtiter plate was shaken for 10 seconds and incubated for 2 hours at 37° C. When there was no turbidity measured at a given concentration the sample was assumed to be dissolved.
# [6] = Microsomal (metabolic) stability, human liver microsomes; conditions: for CLint scaled at 10 µM / half-life at 10 µM: human, liver microsomes; for CLint scaled at 10 µM: pH 7.4; for half-life at 10 µM: pH 7.4, Microsomal stability (t1/2); for half-life at 10 µM / Microsomal stability (t1/2), Human: human liver microsomes, 0.5 mg protein/ml, 10 μM compound, 37° C.; for Microsomal stability (t1/2), Human: Hydrochloride
# Text: as §2, §3, §4
# [7] = Microsomal (metabolic) stability, mouse liver microsomes; conditions: pH 7.4
# Text: as §2, §3, §4
# [8] = Pharmacokinetics and tissue distribution after single-dose iv injection in mice; format: in vivo; conditions: single-dose iv injection (~10 mg/kg)
# [9] = Plasma stability, rat plasma; format: in vitro ADME; conditions: 37° C., remaining parent compound, read-out: Plasma stability (% recovery after 6 h), Rat
# Experimental: as §1
# [10] = Plasma stability, mouse plasma; format: in vitro ADME; conditions: 37° C., remaining parent compound, read-out: Plasma stability (% recovery after 6 h), Mouse
# Experimental: as §1
# [11] = liver microsomes, pH 7.4, Microsomal stability (t1/2), rat liver microsomes, 0.5 mg protein/ml, 10 μM compound, 37° C.
SMILES,"Tissue distribution profile, levels in organs [1]","Protection against organ damage: plasma lactate dehydrogenase (LDH) and creatine kinase levels, prophylactic setting [2]","Protection against organ damage: plasma lactate dehydrogenase (LDH) and creatine kinase levels, therapeutic setting [2]","recovery at 6 h, 50 μM [3] [%]","CLint scaled at 10 µM ([4]; liver microsomes, pH 7.4) [mL/min/kg]","half-life at 10 µM [4, 11] [h]",Solubility (kinetic) [5] [µM],CLint scaled at 10 µM [6] [mL/min/kg],half-life at 10 µM [6] [h],CLint scaled at 10 µM ([7]; liver microsomes) [mL/min/kg],Levels in blood [8],"recovery at 6 h, 50 μM [9] [%]","recovery at 6 h, 50 μM [10] [%]","Microsomal stability (t1/2), Human [6] [h]",half-life at 10 µM ([7]; microsomes) [h],other results
"CNCCNS(=O)(=O)c1ccc(NC2CCCCC2)c(NCc2ccccc2)c1.Cl [Compound 37, 3-(benzylamino)-4-(cyclohexylamino)-N-(2-(methylamino)ethyl)benzenesulfonamide Hydrochloride]",not detected in any organ,more effective,more effective,90.3,161 ± 4.6,0.35 ± 0.01,>200,1.7 ± 0.5,13.2 ± 4.1,139 ± 6.2,almost undetectable levels in blood,65.8,100,,,half-life at 10 µM ([7]; liver microsomes): 0.45 ± 0.02 h
"Cl.NCCNS(=O)(=O)c1ccc(NC2CCCCC2)c(NCc2ccccc2)c1 [Compound 38, N-(2-aminoethyl)-3-(benzylamino)-4-(cyclohexylamino)benzenesulfonamide Hydrochloride]",detected in very low levels,more effective,more effective,100,27.4 ± 2.7,,>200,1.3 ± 0.1,17.7,4.8 ± 1.5,almost undetectable levels in blood,100,100,17.71 ± 2.04,13,"half-life at 10 µM ([4]; microsomes, pH 7.4): 2.05 h"
"Cl.O=S(=O)(NCCN1CCNCC1)c1ccc(NC2CCCCC2)c(NCc2ccccc2)c1 [Compound 39, 3-(benzylamino)-4-(cyclohexylamino)-N-(2-(piperazin-1-yl)ethyl)benzenesulfonamide Hydrochloride]",still present in range of 2- to 100-fold less than the dose injected,more effective,more effective,84.2,3.4 ± 1,16.5,>200,1.1 ± 0.3,20.5,18 ± 7.1,almost undetectable levels in blood,85.8,100,20.53 ± 5.49,3.46,"Tissue distribution profile compared to -3206 and benchmark Fer-1 ([1]; 2 h after injection): superior profile; Crossing of the blood-brain barrier ([1]; Hydrochloride): efficiently crosses the blood brain barrier; Crossing of the blood-brain barrier ([1]; listed as UAMC-3203, Hydrochloride): seems to cross the blood-brain barrier; concentration at 2 h ([1]; mouse, tissues (heart, liver, lung, muscle, kidney, brain), 2 h after injection, read-out: Detected levels in tissue depending on the organ): 3000 to 60000 ng/g; Microsomal stability (t1/2), Rat ([4]; rat liver microsomes, 0.5 mg protein/ml, 10 μM compound, 37° C., Hydrochloride): 16.48 ± 4.66 h"

# From patent publication US11339124B2, “3-(benzylamino)-4-(cyclohexylamino)-n-(2-(piperazin-1-yl)ethyl)benzenesulfonamide derivatives and related ferrostatin-1 analogues as cell death inhibitors for treating e.g. stroke” (VIB VZW, priority 2018, dated 2022)
